# In publication PMC4591828, “Bacterial Rotary Export ATPases Are Allosterically Regulated by the Nucleotide Second Messenger Cyclic-di-GMP” (The Journal of Biological Chemistry, 2015):
# Assays:
# FliIΔ1–18 [1] = test system: T1, FliIΔ1–18; format: biochemical; conditions: ATP substrate, 2 mM MgCl2, pH 8.0; allosteric
# T1 construct: gene fliI; N-terminal truncation lacking first 18 residues, N-terminal His6 tag (pETNdeM-11), expressed in E. coli
# FliIHis [2] = molecular target: T2, FliIHis; assay: pyruvate kinase/lactate dehydrogenase-linked ATPase assay; format: biochemical, Pseudomonas fluorescens; conditions: 1 mM ATP, 2 mM MgCl2, pH 8.0; allosteric
# T2 construct: gene fliI
# HrcNHis = molecular target: T3, HrcNHis (Pseudomonas syringae group genomosp. 3, UniProt Q887B5); assay: as above; format: biochemical
# T3 construct: gene sctN; full-length, N-terminal His6 tag (pETNdeM-11), expressed in E. coli
# T3 sequence (Q887B5 whole entry): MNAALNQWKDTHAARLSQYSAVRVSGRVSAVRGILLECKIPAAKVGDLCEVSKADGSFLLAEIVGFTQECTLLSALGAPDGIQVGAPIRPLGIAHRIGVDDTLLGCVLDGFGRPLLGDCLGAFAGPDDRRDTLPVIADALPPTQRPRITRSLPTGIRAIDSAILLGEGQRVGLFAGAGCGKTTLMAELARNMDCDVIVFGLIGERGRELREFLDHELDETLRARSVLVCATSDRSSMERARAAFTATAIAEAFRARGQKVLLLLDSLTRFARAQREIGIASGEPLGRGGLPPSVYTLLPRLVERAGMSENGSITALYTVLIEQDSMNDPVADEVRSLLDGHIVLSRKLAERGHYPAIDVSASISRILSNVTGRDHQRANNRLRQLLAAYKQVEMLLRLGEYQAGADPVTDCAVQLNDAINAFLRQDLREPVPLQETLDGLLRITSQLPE
# FliIΔ1–18 [3] = test system: T4, FliIΔ1–18; conditions: no cdG; 2 mM MgCl2, 10 mM KCl, pH 8.0
# T4 construct: gene fliI
# FliIHis [4] = test system: T2, FliIHis; conditions: no cdG; 2 mM MgCl2, 10 mM KCl, pH 8.0
SMILES,IC50 (FliIΔ1–18 [1]),IC50 (FliIHis [2]),IC50 (HrcNHis),Km (FliIΔ1–18 [3]),Km (FliIHis [4])
Nc1nc2c(ncn2[C@@H]2O[C@@H]3COP(=O)(O)O[C@H]4[C@@H](O)[C@H](n5cnc6c(=O)[nH]c(N)nc65)O[C@@H]4COP(=O)(O)O[C@H]3[C@H]2O)c(=O)[nH]1 [cdG],48.8 ± 0.159 µM,36.7 ± 1.13 µM,25.1 ± 1.14 µM,–,–
Nc1ncnc2c1ncn2[C@@H]1O[C@H](COP(=O)(O)OP(=O)(O)OP(=O)(O)O)[C@@H](O)[C@H]1O [ATP],–,–,–,0.45 ± 0.04 µM,0.48 ± 0.03 µM
